# Laboratory results published in ChEMBL document CHEMBL5550222, “Synthesis and Biological Evaluation of Novel Psidium Meroterpenoid Derivatives against Cisplatin-Induced Acute Kidney Injury” (J Med Chem, 2024).
# The source made the active and inactive calls. The calls are words filed in the database; no cut-off is given here.
# Key:
# HK-2 [1] = assay: Effect on MRP1 mRNA level in human HK-2 cells by transcriptome sequencing analysis; assay type: functional, cell-based
# HK-2 [2] = assay: Induction of autophagy in human HK-2 cells assessed as upregulation of LC3II expression at 2.5 to 10 uM by Western blotting analysis; assay type: functional, cell-based; conditions: dose 2.5-10 µM
# [3] = MRT (0 to infinity) in ICR mouse 1 mg/kg, iv measured for 24 hrs by HPLC-MS analysis; assay type: ADME, organism-based; conditions: in vivo
# [4] = MRT (0 to infinity) in ICR mouse 50 mg/kg, po measured for 24 hrs by HPLC-MS analysis; assay type: ADME, organism-based; conditions: in vivo
# [5] = AUC (0 to infinity) in ICR mouse 1 mg/kg, iv measured for 24 hrs by HPLC-MS analysis; assay type: ADME, organism-based; conditions: in vivo
# [6] = MRT (0 to t) in ICR mouse 1 mg/kg, iv measured for 24 hrs by HPLC-MS analysis; assay type: ADME, organism-based; conditions: in vivo
# [7] = Acute toxicity in C57BL/6J mouse assessed as heart damage at 1 g/Kg, po measured for 2 weeks by H and E staining based analysis; assay type: organism-based; conditions: in vivo, 1000 mg/kg, 336 h
# HK-2 [8] = assay: Induction of autophagy in human HK-2 cells assessed as upregulation of p62 expression at 2.5 to 10 uM by Western blotting analysis; assay type: functional, cell-based; conditions: dose 2.5-10 µM
# [9] = Acute toxicity in C57BL/6J mouse assessed as small intestine damage at 1 g/Kg, po measured for 2 weeks by H and E staining based analysis; assay type: organism-based; conditions: in vivo, 1000 mg/kg, 336 h
# [10] = Acute toxicity in C57BL/6J mouse assessed as animal death at 1 g/Kg, po measured for 2 weeks; assay type: organism-based; conditions: in vivo, 1000 mg/kg, 336 h
# [11] = Acute toxicity in C57BL/6J mouse assessed as ovary damage at 1 g/Kg, po measured for 2 weeks by H and E staining based analysis; assay type: organism-based; conditions: in vivo, 1000 mg/kg, 336 h
# Lewis lung carcinoma = assay: Antitumor activity against cisplatin-induced mouse Lewis lung carcinoma cell line xenografted C57BL/6J mouse assessed as reduction in tumor mass at 25 to 100 mg/kg, po preadministered with compound for 2 days followed by cisplatin addition on day 3 and measured 72 hrs post cisplatin administration; assay type: functional, organism-based; conditions: dose 25-100 mg/kg, time 5.0 day
# [12] = Clearance in ICR mouse 1 mg/kg, iv measured for 24 hrs by HPLC-MS analysis; assay type: ADME, organism-based; conditions: in vivo
# [13] = Terminal half life in ICR mouse 50 mg/kg, po measured for 24 hrs by HPLC-MS analysis; assay type: ADME, organism-based; conditions: in vivo, read-out: beta t1/2 (converted)
# [14] = AUC (0 to t) in ICR mouse 50 mg/kg, po measured for 24 hrs by HPLC-MS analysis; assay type: ADME, organism-based; conditions: in vivo
# [15] = Acute toxicity in C57BL/6J mouse assessed as lung damage at 1 g/Kg, po measured for 2 weeks by H and E staining based analysis; assay type: organism-based; conditions: in vivo, 1000 mg/kg, 336 h
# [16] = AUC (0 to t) in ICR mouse 1 mg/kg, iv measured for 24 hrs by HPLC-MS analysis; assay type: ADME, organism-based; conditions: in vivo
# [17] = Acute toxicity in C57BL/6J mouse assessed as brain damage at 1 g/Kg, po measured for 2 weeks by H and E staining based analysis; assay type: organism-based; conditions: in vivo, 1000 mg/kg, 336 h
# Mus musculus [18] = assay: Protection against cisplatin-induced nephrotoxicity in C57BL6/J mouse assessed as reduction in SCR level in kidney at 100 mg/kg, po preadministered with compound for 2 days followed by cisplatin addition on day 3 and measured 72 hrs post cisplatin administration; assay type: functional, organism-based; conditions: time 5.0 day
# [19] = AUC (0 to infinity) in ICR mouse 50 mg/kg, po measured for 24 hrs by HPLC-MS analysis; assay type: ADME, organism-based; conditions: in vivo
# [20] = Volume of distribution in ICR mouse 1 mg/kg, iv measured for 24 hrs by HPLC-MS analysis; assay type: ADME, organism-based; conditions: in vivo
# [21] = Acute toxicity in C57BL/6J mouse assessed as liver damage at 1 g/Kg, po measured for 2 weeks by H and E staining based analysis; assay type: organism-based; conditions: in vivo, 1000 mg/kg, 336 h
# Mus musculus [22] = assay: Protection against cisplatin-induced nephrotoxicity in C57BL6/J mouse assessed as reduction in BUN level in kidney at 100 mg/kg, po preadministered with compound for 2 days followed by cisplatin addition on day 3 and measured 72 hrs post cisplatin administration; assay type: functional, organism-based; conditions: time 5.0 day
# [23] = Cmax in ICR mouse 50 mg/kg, po measured for 24 hrs by HPLC-MS analysis; assay type: ADME, organism-based; conditions: in vivo
# [24] = Oral bioavailability in ICR mouse 50 mg/kg measured for 24 hrs by HPLC-MS analysis; assay type: ADME, organism-based; conditions: in vivo
# [25] = Acute toxicity in C57BL/6J mouse assessed as kidney damage at 1 g/Kg, po measured for 2 weeks by H and E staining based analysis; assay type: organism-based; conditions: in vivo, 1000 mg/kg, 336 h
# HK-2 [26] = assay: Protection against cisplatin-induced nephrotoxicity in human HK-2 cells at 1 to 10 uM preincubated with compound for 2 hrs followed by cisplatin induction and measured after 72 hrs by MTT assay; assay type: functional, cell-based; conditions: dose 1-10 µM, time 74.0 hrs
# [27] = MRT (0 to t) in ICR mouse 50 mg/kg, po measured for 24 hrs by HPLC-MS analysis; assay type: ADME, organism-based; conditions: in vivo
# [28] = Acute toxicity in C57BL/6J mouse assessed as abnormal behavior at 1 g/Kg, po measured for 2 weeks; assay type: organism-based; conditions: in vivo, 1000 mg/kg, 336 h
# [29] = Terminal half life in ICR mouse 1 mg/kg, iv measured for 24 hrs by HPLC-MS analysis; assay type: ADME, organism-based; conditions: in vivo, read-out: beta t1/2 (converted)
# [30] = Acute toxicity in C57BL/6J mouse assessed as stomach damage at 1 g/Kg, po measured for 2 weeks by H and E staining based analysis; assay type: organism-based; conditions: in vivo, 1000 mg/kg, 336 h
# [31] = Cmax in ICR mouse 1 mg/kg, iv measured for 24 hrs by HPLC-MS analysis; assay type: ADME, organism-based; conditions: in vivo
# [32] = Acute toxicity in C57BL/6J mouse assessed as spleen damage at 1 g/Kg, po measured for 2 weeks by H and E staining based analysis; assay type: organism-based; conditions: in vivo, 1000 mg/kg, 336 h
# HK-2 [33] = assay: Protection against cisplatin-induced nephrotoxicity in human HK-2 cells preincubated with compound for 2 hrs followed by cisplatin induction and measured after 72 hrs by MTT assay; assay type: functional, cell-based; conditions: dose 1-10 µM, time 74.0 hrs
# HK-2 [34] = assay: Protection against cisplatin-induced nephrotoxicity in human HK-2 cells increase in viability at 10 uM preincubated with compound for 2 hrs followed by cisplatin induction and measured after 72 hrs by MTT assay (reference value: 45.1%); assay type: functional; conditions: time 74 hrs
# HK-2 [35] = assay: Protection against cisplatin-induced nephrotoxicity in human HK-2 cells assessed as cell viability at 5 uM preincubated with compound for 2 hrs followed by cisplatin induction and measured after 72 hrs by MTT assay (reference value: 45.1 +/- 3.2%); assay type: functional; conditions: time 74 hrs, read-out: Activity
# HK-2 [36] = assay: Protection against cisplatin-induced nephrotoxicity in human HK-2 cells at 5 to 10 uM preincubated with compound for 2 hrs followed by cisplatin induction and measured after 72 hrs by MTT assay; assay type: functional, cell-based; conditions: dose 5-10 µM, time 74.0 hrs
# [37] = Cytotoxicity against human HK-2 cells incubated for 72 hrs by MTT assay; assay type: toxicity, cell-based
# HK-2 [38] = assay: Protection against cisplatin-induced nephrotoxicity in human HK-2 cells assessed as cell viability at 10 uM preincubated with compound for 2 hrs followed by cisplatin induction and measured after 72 hrs by MTT assay (reference value: 45.1 +/- 3.2%); assay type: functional; conditions: time 74 hrs, read-out: Activity
structure (smiles),measurement,setting,value
COc1c(CO)c(OC)c(C(=O)c2ccccc2)c2c1C[C@H]1CC/C(C)=C/CC(C)(C)/C=C/C[C@]1(C)O2,Activity,HK-2 [1],inactive
same,Activity,HK-2 [2],Active
same,MRT inf,[3],2.22 h
same,MRT inf,[4],3.21 h
same,AUC(0-inf),[5],146 ng·h/mL
same,MRT last at 24 h,[6],1.59 h
same,Activity,[7],Non-Toxic
same,Activity,HK-2 [8],Active
same,Activity,[9],Non-Toxic
same,Activity,[10],Non-Toxic
same,Activity,[11],Non-Toxic
same,Activity,Lewis lung carcinoma,Active
same,clearance,[12],114 mL/min/kg
same,half-life,[13],2.5 h
same,AUC(0-t) at 24 h,[14],783 ng·h/mL
same,Activity,[15],Non-Toxic
same,AUC(0-t) at 24 h,[16],137 ng·h/mL
same,Activity,[17],Non-Toxic
same,Activity,Mus musculus [18],Active
same,AUC(0-inf),[19],869 ng·h/mL
same,Vd,[20],24.4 L/kg
same,Activity,[21],Non-Toxic
same,Activity,Mus musculus [22],Active
same,Cmax,[23],266 ng/mL
same,bioavailability,[24],11.9%
same,Activity,[25],Non-Toxic
same,Activity,HK-2 [26],Active
same,MRT last at 24 h,[27],2.29 h
same,Activity,[28],Non-Toxic
same,half-life,[29],2.47 h
same,Activity,[30],Non-Toxic
same,Cmax,[31],485 ng/mL
same,Activity,[32],Non-Toxic
COc1c(C=O)c(OC)c(C(=O)c2ccccc2)c2c1CC1CC/C(C)=C/CC(C)(C)/C=C/CC1(C)O2 (stereo not drawn),Activity,HK-2 [1],inactive
same,Activity,HK-2 [33],Dose-Dependent Effect
same,Activity,HK-2 [2],Active
same,Activity,HK-2 [34],>90%
same,viability at 5 µM,HK-2 [35],82.8%
same,Activity,HK-2 [8],Active
same,Activity,HK-2 [36],Active
same,Activity,Lewis lung carcinoma,Active
same,IC50 at 72 h,[37],> 10 µM
same,viability at 10 µM,HK-2 [38],90.6%
